Laboratory results published in paper PMC12227546 (Nature Communications, 2025).
Numbering of substitutions follows the chain as printed. Names and notes keep the numbering of the source.

B1: taurine transporter (TauT) (Homo sapiens; F58A) (protein)
chain: MATKEKLQCLKDFHKDILKPSPGKSPGTRPEDEAEGKPPQREKWSSKIDFVLSVAGGAVGLGNVWRFPYLCYKNGGGAFLIPYFIFLFGSGLPVFFLEIIIGQYTSEGGITCWEKICPLFSGIGYASVVIVSLLNVYYIVILAWATYYLFQSFQKELPWAHCNHSWNTPHCMEDTMRKNKSVWITISSTNFTSPVIEFWERNVLSLSPGIDHPGSLKWDLALCLLLVWLVCFFCIWKGVRSTGKVVYFTATFPFAMLLVLLVRGLTLPGAGAGIKFYLYPDITRLEDPQVWIDAGTQIFFSYAICLGAMTSLGSYNKYKYNSYRDCMLLGCLNSGTSFVSGFAIFSILGFMAQEQGVDIADVAESGPGLAFIAYPKAVTMMPLPTFWSILFFIMLLLLGLDSQFVEVEGQITSLVDLYPSFLRKGYRREIFIAFVCSISYLLGLTMVTEGGMYVFQLFDYYAASGVCLLWVAFFECFVIAWIYGGDNLYDGIEDMIGYRPGPWMKYSWAVITPVLCVGCFIFSLVKYVPLTYNKTYVYPNWAIGLGWSLALSSMLCVPLVIVIRLCQTEGPFLVRVKYLLTPREPNRWAVEREGATPYNSRTVMNGALVKPTHIIVETMM

Tests used:
[1] = target: T1, taurine transporter (TauT) (Homo sapiens, UniProt P31641); assay: cryo-EM structure; assay type: cell-based
T1 sequence (P31641 1-620): B1 chain with A58F

[2] = substrate: NCCS(=O)(=O)O; assay: cells, lysate or membranes; assay type: cell-based, Homo sapiens; conditions: Na+ and Cl- central pocket

Row | Molecule | IC50 [1] | Km [2]
1 | NCCCC(=O)O [GABA] | 1300 µM | –
2 | B1 | – | 166.2 µM
